Source: PubChem BioAssay AID1159565 (GlaxoSmithKline (GSK), 2015)
pIC50: −log10 of the molar value. Activity calls are given as the source filed them. The rule behind the calls is not given here.

System: T. cruzi-infected H9C2 cardiomyocytes, high-content imaging
Test: intracellular T. cruzi amastigote inhibition, imaging, H9C2 host cardiomyocytes, host toxicity (AID 1159565);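 note: infected cells incubated 72 h after plating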
[1] = measured here: H9C2 host cell toxicity
[2] = measured here: amastigotes per cell

Structure (SMILES)	pIC50	pIC50 [1]	pIC50 [2]	IC50
O=C(NCCc1csc(-c2cccc(F)c2)n1)c1ccco1	5.80	5.00	5.89	–
CC(C)CC(=O)NC(c1cccs1)c1ccc2cccnc2c1O (stereo not drawn)	5.89	5.70	6.10	–
CC1CN(Cc2ccc(C#N)cc2)CCN1c1ccc(NC(=O)c2ccccc2F)cc1 (stereo not drawn)	–	< 4.30	< 4.30	> 50 µM (inactive)
COc1ccccc1C=CCN1C[C@H]2CCC[C@@H](C1)C2(O)c1cccnc1 (stereo partly drawn)	7.40	< 4.30	7.40	–
O=C(CN(Cc1ccccn1)Cc1ccccn1)NCc1ccc2c(c1)OCO2	4.89	< 4.10	5.20	–
CC1CN(S(=O)(=O)c2ccc(NC(=O)c3cc(C4CC4)nc4c3cnn4C(C)C)cc2)CC(C)O1 (stereo not drawn)	6.10	< 4.30	6.20	–
O=C(NC1CCN(C2Cc3ccc(NS(=O)(=O)c4cc(F)cc(F)c4)cc3C2)CC1)C1CC1 (stereo not drawn)	–	< 4.30	< 4.30	> 50 µM (inactive)
O=C(NCc1nnc2n1CCCCC2)c1ccc(-c2ccc(F)cc2)o1	5.80	< 4.30	6.00	–
COc1ccc(C(C)(C)C)cc1S(=O)(=O)n1ccnc1	6.70	< 4.30	6.70	–
COc1ccc(Nc2nc(NC3CCC(O)CC3)ncc2Br)c(C(N)=O)c1 (stereo not drawn)	5.49	6.10	5.70	–
CNC(=O)C1Cc2ccccc2N1C(=O)COc1cccc(OC)c1 (stereo not drawn)	–	< 4.30	< 4.30	> 50 µM (inactive)
Cc1nn(-c2ccccc2)nc1CNC(=O)CN(Cc1ccccn1)Cc1ccccn1	5.00	4.20	5.49	–
CC(Cn1ccnc1)NC(=O)COc1ccc(Cl)c(Cl)c1 (stereo not drawn)	6.30	< 4.30	6.40	–
CC(C)(C)c1csc(NC(=O)c2ccc([N+](=O)[O-])s2)n1	6.49	4.89	6.70	–
c1ccc2[nH]c(-c3ccc(N4CCCC4)nc3)nc2c1	5.80	< 4.30	6.00	–
CC1=C(C(=O)Nc2ccc(Cl)cc2)C(c2ccncc2)n2ncc(C(=O)Nc3ccccc3)c2N1 (stereo not drawn)	7.70	< 4.30	7.70	–
CN(Cc1cc2ccccc2s1)c1ncc2c(N)nc(N)nc2n1	5.49	4.70	6.10	–
Cc1ccc(CNC2CCN(C[C@@H]3Cn4c(=O)ccc5ccc(=O)n3c54)CC2)cc1F	5.89	< 4.30	6.00	–

Structure (SMILES)	pIC50	pIC50 [1]	pIC50 [2]	IC50
CNc1nc(C)nc(N2CCc3cc(C(=O)NCc4ccc(-c5ccn[nH]5)cc4Cl)ccc32)n1	–	4.70	< 4.30	> 50 µM (inactive)
O=C(CN(Cc1ccccn1)Cc1ccccn1)NC1Cc2ccccc2C1	4.89	< 4.10	5.20	–
O=C(Nc1nc(-c2ccc(F)cc2)cs1)c1ccc([N+](=O)[O-])s1	6.60	5.40	6.80	–
CC(C)Nc1nc(Cl)nc2ccccc12	5.00	5.10	5.40	–
CCCn1c(NC(=O)CCn2cc(Br)cn2)nc2ccccc21	5.20	4.60	5.60	–
COc1ccccc1-n1c(SCC(=O)Nc2ccc3c(c2)OCO3)nc2c(c1=O)SCC2	4.80	< 4.30	5.10	–
Cc1c([N+](=O)[O-])c(C(=O)Nc2sc3c(c2C#N)CCC(C)C3)nn1C (stereo not drawn)	5.60	< 4.30	5.80	–
N#Cc1ccc(Br)cc1[N+](=O)[O-]	6.10	4.40	7.20	–
O=C1NCc2cccc(Nc3nc(NC4CCC(O)CC4)ncc3Br)c21 (stereo not drawn)	6.00	7.00	6.40	–
CCC(c1ccc(F)cc1)n1cncc1-c1cnn(C)c1 (stereo not drawn)	6.49	< 4.30	6.49	–
Cc1nc2c(-c3ncn[nH]3)cc(NC(=O)Cc3ccccc3)cn2c1C	6.00	5.20	6.10	–
O=[N+]([O-])c1ccc(-c2nnn(-c3ccc(Cl)cc3)n2)o1	6.10	5.00	7.10	–
Cn1cc(CN2CCN(c3ccc4c(c3)CCN(C(=O)[C@H]3C[C@@H]3c3ccccc3)CC4)CC2)cn1	5.49	4.49	6.10	–
COc1ccc(S(=O)(=O)Nc2ccc(CN3CCN(C(=O)c4cccc(C#N)c4)CC3)cc2)cc1	6.00	< 4.30	6.10	–
Cc1nc(C(=O)Nc2ccc3c(c2)OCO3)nn1-c1ccc(F)cc1	5.89	< 4.30	6.00	–
CC(C)c1nn(-c2nc(N)nc(-c3ccccn3)n2)c(N)c1C1CCCCC1	5.89	5.49	5.89	–
COCCn1c(-c2ccc3c(c2)OCO3)cnc1NCc1ccccc1OC	4.70	4.40	5.10	–
CN(Cc1nnnn1C1CCN(Cc2ccc(-n3ccnc3)cc2)CC1)c1ccc(F)cc1F	6.49	< 4.30	6.49	–
